Data from patent US20260224716A1, “PTH ANALOGS FOR THE TREATMENT OF HYPOPARATHYROIDISM” (priority 2020, published 2026).
Several values for one entry are separate records, joined by “and”; a condition that tells them apart may be missing. Equal values may be shown once. Values belong to the molecule of their own block, whether it stands above or below them.

Tests used:
serum calcium [1] = assay: Pharmacology in normal mice: serum calcium (Example 6); assay type: in vivo, C57Bl6/J mice; conditions: FIG. 5C, 20 or 40 nmol/kg SC, 24 and 48 hours
Method: Each group of mice was bled immediately before the injection and after 24 and 48 hours. Blood was centrifuges and serum was collected and stored at −20 C. Calcium concentrations were determined used commercially available assays following the manufacturer's instructions.

serum calcium [2] = assay: Serum calcium in rats, repeat daily dosing 7 days (Example 13); assay type: in vivo, Sprague-Dawley rats; conditions: daily SC 7 days; SEQ ID NO: 77 20 nmol/kg, SEQ ID NO: 87 20 or 40 nmol/kg; returned to initial values after washout
Method: (§1) Female Sprague-Dawley rats were single or double-housed and randomly assigned to four groups (n=5-6 per group) as described in Table 20, and then weighed.
(§2) After the treatment ceased, the animals were monitored on days 9 and 11 (washout period).
(§3) Body weight and food intake were measured on days 0, 1, 3, 5 and 7. Ca was measured on days 0, 1, 2, 3, 4, 7, 9 and 11. Pi was determined on the same samples, except for days 9 and 11.

serum calcium [3] = assay: Serum calcium in mice after single subcutaneous SEQ ID NO: 77 (Example 9); assay type: in vivo, C57BL/6J mice; conditions: for Percent change of serum Ca levels: 24 hr vs 0 hr
Method: Absorbance (Ab) was measured at 650 nm wavelength. Manufacturer linearity is provided up to 15 mg/dl. […] This difference was statistically significant at 24 hours when accounting for the initial baseline levels (FIG. 14B). There was an increase in serum Ca at 24 hours following the dose of 40 nmol/kg.

PTH1 receptor = molecular target: T1, PTH1 receptor (Homo sapiens, UniProt Q03431); assay: Luciferase-based reporter gene assay for cAMP detection (HEK293 cells); assay type: cell-based; conditions: FIG. 4; luciferase reporter of cAMP production
T1 construct: expressed in transfected cells; host or cells: HEK293
T1 sequence (Q03431 27-593): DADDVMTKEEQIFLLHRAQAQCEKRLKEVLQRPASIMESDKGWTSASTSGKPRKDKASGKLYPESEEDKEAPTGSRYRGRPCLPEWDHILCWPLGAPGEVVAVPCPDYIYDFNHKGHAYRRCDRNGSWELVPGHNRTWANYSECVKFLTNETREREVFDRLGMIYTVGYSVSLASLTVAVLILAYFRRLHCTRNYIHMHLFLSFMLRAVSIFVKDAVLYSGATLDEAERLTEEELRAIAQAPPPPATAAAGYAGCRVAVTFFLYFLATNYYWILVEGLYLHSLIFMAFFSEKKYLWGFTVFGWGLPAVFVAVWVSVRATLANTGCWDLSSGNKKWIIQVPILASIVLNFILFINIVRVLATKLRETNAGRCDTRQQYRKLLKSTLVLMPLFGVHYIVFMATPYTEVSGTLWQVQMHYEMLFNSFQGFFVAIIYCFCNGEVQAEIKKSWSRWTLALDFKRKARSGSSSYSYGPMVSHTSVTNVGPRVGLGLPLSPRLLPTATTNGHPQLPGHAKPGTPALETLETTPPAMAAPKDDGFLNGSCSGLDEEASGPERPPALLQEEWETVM
Method: At the end of the incubation, 50 μL of Steady-Lite Plus (PerkinElmer, Waltham, MA) were added to each well. The plate was shaken briefly, incubated four minutes and light output was measured on an EnSpire Alpha Multi-mode Plate Reader (PerkinElmer, Waltham, MA).

serum phosphate [4] = assay: Serum phosphate in rats, repeat daily dosing 7 days (Example 13); assay type: in vivo, Sprague-Dawley rats; conditions: daily SC, SEQ ID NO: 77 20 nmol/kg
Method: as §1, §2, §3

[5] = Pharmacokinetics of SEQ ID 87 in monkeys, single subcutaneous dose (Example 17); assay type: in vivo, cynomolgus monkeys
[6] = Plasma drug levels in rats, repeat daily dosing 7 days, LCMS (Example 13); assay type: in vivo, Sprague-Dawley rats; conditions: daily SC dosing
Method: as §1, §2, §3

[7] = Pharmacokinetics in rats after single subcutaneous dose, LCMS (Example 10)
PTHR1 = molecular target: T2, PTHR1 (Homo sapiens, UniProt Q03431); assay: cAMP Hunter Teriparatide Bioassay (CHO-K1 PTHR1 cells); assay type: cell-based
T2 construct: host or cells: CHO-K1
T2 sequence (Q03431 27-593): T1 sequence (Q03431 27-593)

serum phosphate [8] = assay: Pharmacology in normal rats: serum phosphate (Example 5); assay type: in vivo, Sprague Dawley rats; conditions: FIG. 5B; 20, 40, 80 nmol/kg SC, dose-responsive over 72 hours
Method: (§4) Each group of rats was bled immediately before the injection and after 6, 24, 48 and 72 hours. Blood was spun and serum was collected and stored at −20° C. Calcium and phosphorous concentrations were determined used commercially available assays following the manufacturer's instructions.

serum calcium [9] = assay: Pharmacology in normal rats: serum calcium (Example 5); assay type: in vivo, Sprague Dawley rats; conditions: FIG. 5A; 20, 40, 80 nmol/kg SC, dose-responsive over 72 hours
Method: as §4

[10] = tested on: calcium urinary excretion; conditions: humans, 100 ug subcutaneous; adequate control limited to only ⅓ of the day; cited from earlier work
[11] = rats, SEQ ID NO: 77 30 nmol/kg SC
[12] = rats, after SEQ ID NO: 87 30 nmol/kg SC

potency at the PTH receptor (PTH1 receptor): retains the high potency
time of peak concentration of drug formed from prodrug ([5]; after SEQ ID No 87 2.5, 3.75, 5 nmol/kg SC): 48 to 72 h
concentration as fraction of the Cmax concentration ([5]; drug formed from prodrug, at one week): approximately ⅔
daily administrations to reach steady state plasma levels [6]: four
level at time molar at 2 h ([7]; female, Sprague-Dawley, rat, serum, sc, 30 nmol/kg): > 100 nM
time at baseline level [7, 11]: 96 h
time of peak concentration [7, 11]: seven
concentration as fraction of the Cmax ([7]; rats, SEQ ID NO: 77 30 nmol/kg SC, at 48 h): ⅓
time of peak of drug formed from prodrug [7, 12]: 24 h
time of return to baseline, drug formed from prodrug [7, 12]: one week
EC50 (PTHR1; FIG. 11, active drug): 0.01 nM
Hillslope (PTHR1; FIG. 11, active drug): 1.874
EC50 (PTHR1; FIG. 12): 0.0366 nM
Hillslope (PTHR1; FIG. 12): 2.237
EC50 (PTHR1; FIG. 13A): 0.0107 nM
Hillslope (PTHR1; FIG. 13A): 2.687
EC50 (PTHR1; FIG. 13B): 0.0193 nM
Hillslope (PTHR1; FIG. 13B): 2.687
PTH agonism (PTHR1; conclusions from Table 14, FIGS. 8A-8C): inactivates the PTH agonism
Molecule: CC[C@H](C)[C@H](NC(=O)[C@H](CCC(=O)O)NC(=O)[C@H](CO)NC(=O)[C@@H](NC(=O)[C@@H](N)CO)C(C)C)C(=O)N[C@@H](CCC(N)=O)C(=O)N[C@@H](CC(C)C)C(=O)N[C@@H](CCSC)C(=O)N[C@@H](Cc1c[nH]cn1)C(=O)N[C@@H](CC(N)=O)C(=O)N[C@@H](CC(C)C)C(=O)NCC(=O)N[C@@H](CCCCN)C(=O)N[C@@H](Cc1c[nH]cn1)C(=O)N[C@@H](CC(C)C)C(=O)N[C@@H](CC(N)=O)C(=O)N[C@@H](CO)C(=O)N[C@@H](CCSC)C(=O)N[C@@H](CCC(=O)O)C(=O)N[C@@H](CCCNC(=N)N)C(=O)N[C@H](C(=O)N[C@@H](CCC(=O)O)C(=O)N[C@@H](Cc1c[nH]c2ccccc12)C(=O)N[C@@H](CC(C)C)C(=O)N[C@@H](CCCNC(=N)N)C(=O)N[C@@H](CCCCN)C(=O)N[C@@H](CCCCN)C(=O)N[C@@H](CC(C)C)C(=O)N[C@@H](CCC(N)=O)C(=O)N[C@@H](CC(=O)O)C(=O)N[C@H](C(=O)N[C@@H](Cc1c[nH]cn1)C(=O)N[C@@H](CCCCNC(=O)CC[C@H](NC(=O)COCCOCCNC(=O)COCCOCCNC(=O)CC[C@H](NC(=O)CCCCCCCCCCCCCCCCC(=O)O)C(=O)O)C(=O)O)C(=O)O)C(C)C)C(C)C [SEQ ID NO: 77]
effect on serum calcium levels (serum calcium [1]): increase serum calcium levels
Serum Ca levels during the treatment period (serum calcium [2]): gradually increased
Percent change of serum Ca levels (serum calcium [3]; 20 nmol/kg SC): 13.8%
Serum Ca change (serum calcium [3]; 20 nmol/kg SC, 24 hr vs 0 hr (nmol/ul)): 0.3131
Serum Ca change (serum calcium [3]; 20 nmol/kg SC, 48 hr vs 0 hr): 0.0709
serum Ca levels compared to controls or 20 nmol/kg (serum calcium [3]; 40 nmol/kg SC, 24 and 48 hours post treatment): significantly increased serum Ca levels
Percent change of serum Ca levels (serum calcium [3]; 40 nmol/kg SC): 26.2%
Serum Ca change (serum calcium [3]; 40 nmol/kg SC, 24 hr vs 0 hr (nmol/uL)): 0.631
Serum Ca change (serum calcium [3]; 40 nmol/kg SC, 48 hr vs 0 hr): 0.073
Serum Calcium Conc., individual mouse (serum calcium [3]; Group F (20 nmol/kg by match with Table 11), 0 hour): 8.9502 mg/dl and 2.2375 nmol/uL and 8.8662 mg/dl and 2.2165 nmol/uL and 9.3810 mg/dl and 2.3453 nmol/uL and 9.3774 mg/dl and 2.3443 nmol/uL and 10.2136 mg/dl and 2.5534 nmol/uL and 9.6513 mg/dl and 2.4128 nmol/uL and 8.7165 mg/dl and 2.1791 nmol/uL and 7.4968 mg/dl and 1.8742 nmol/uL
Serum Calcium Conc., individual mouse (serum calcium [3]; Group F (20 nmol/kg by match with Table 11), 24 hours): 9.1693 mg/dl and 2.2923 nmol/uL and 9.4988 mg/dl and 2.3747 nmol/uL and 9.8423 mg/dl and 2.4606 nmol/uL and 11.4721 mg/dl and 2.8680 nmol/uL and 10.9604 mg/dl and 2.7401 nmol/uL and 10.4767 mg/dl and 2.6192 nmol/uL and 9.1062 mg/dl and 2.2766 nmol/uL and 12.1451 mg/dl and 3.0363 nmol/uL
Serum Calcium Conc., individual mouse (serum calcium [3]; Group F (20 nmol/kg by match with Table 11), 48 hours): 8.8303 mg/dl and 2.2076 nmol/uL and 9.1467 mg/dl and 2.2867 nmol/uL and 8.8431 mg/dl and 2.2108 nmol/uL and 7.3666 mg/dl and 1.8416 nmol/uL and 8.7057 mg/dl and 2.1764 nmol/uL and 9.7411 mg/dl and 2.4353 nmol/uL and 8.7472 mg/dl and 2.1868 nmol/uL and 9.0029 mg/dl and 2.2507 nmol/uL
Serum Calcium Conc., individual mouse (serum calcium [3]; Group G (40 nmol/kg by match with Table 11), 0 hour): 9.4650 mg/dl and 2.3663 nmol/uL and 10.0310 mg/dl and 2.5078 nmol/uL and 9.9105 mg/dl and 2.4776 nmol/uL and 8.8662 mg/dl and 2.2165 nmol/uL and 10.1369 mg/dl and 2.5342 nmol/uL and 10.6007 mg/dl and 2.6502 nmol/uL and 9.6001 mg/dl and 2.4000 nmol/uL and 8.5266 mg/dl and 2.1316 nmol/uL
Serum Calcium Conc., individual mouse (serum calcium [3]; Group G (40 nmol/kg by match with Table 11), 24 hours): 13.6768 mg/dl and 3.4192 nmol/uL and 11.5422 mg/dl and 2.8856 nmol/uL and 12.7305 mg/dl and 3.1826 nmol/uL and 11.5563 mg/dl and 2.8891 nmol/uL and 13.0880 mg/dl and 3.2720 nmol/uL and 11.5633 mg/dl and 2.8908 nmol/uL and 11.7070 mg/dl and 2.9267 nmol/uL and 11.4651 mg/dl and 2.8663 nmol/uL
Serum Calcium Conc., individual mouse (serum calcium [3]; Group G (40 nmol/kg by match with Table 11), 48 hours): 10.2589 mg/dl and 2.5647 nmol/uL and 9.0764 mg/dl and 2.2691 nmol/uL and 10.0607 mg/dl and 2.5152 nmol/uL and 9.2554 mg/dl and 2.3138 nmol/uL and 9.9968 mg/dl and 2.4992 nmol/uL and 9.9425 mg/dl and 2.4856 nmol/uL and 10.6168 mg/dl and 2.6542 nmol/uL and 10.2429 mg/dl and 2.5607 nmol/uL
serum Ca at 48 hours post treatment (serum calcium [3]; all treatments, 20 or 40 nmol/kg SC): returned to near starting levels
serum Pi on day 3 versus vehicle and SEQ ID NO: 87 40 nmol/kg (serum phosphate [4]): differed significantly

Molecule: SVSEIQLMHNLGKHLNSMERVEWLRKKLQDVHK(γE-COC16H32CO2H)F-OH (SVSEIQLMHNLGKHLNSMERVEWLRKKLQDVHXF; K33 γE-diacidC18 acylation; C-terminal acid; SITE 33 MISC_FEATURE - Xaa at position 33 is Lys wherein the side chain is acylated with COC16H32CO2H via a gamma Glu spacer; listed as Homo sapiens) [SEQ ID NO: 102, PTH(1-34), K33(γE-diacidC18)]
effect on serum phosphate (serum phosphate [8]): reduce serum phosphate
effect on serum calcium levels (serum calcium [9]): increase serum calcium levels
effect on serum calcium levels (serum calcium [1]): increase serum calcium levels

B1: Natpara: NPS/Shire's Natpara® (rhPTH), approved by the FDA in January of 2015 (protein, listed as Homo sapiens)
chain: SVSEIQLMHNLGKHLNSMERVEWLRKKLQDVHNFVALGAPLAPRDAGSQRPRKKEDNVLVESHEKSLGEADKADVNVLTKAKSQ
duration of action on calcium [10]: insufficient duration of action
